Results on twelve compounds are retold here after patent US7829584B2, “Pyridines and pyridine N-oxides as modulators of thrombin” (Janssen Pharmaceutica NV, priority 2006, dated 2010).

This experiment addresses T1, Human α-thrombin (Homo sapiens, UniProt P00734).
T1 construct: Human α-thrombin (Enzyme Research Laboratories HT1002a); purchased Enzyme Research Laboratories (South Bend, Ind.) HT1002a
Kind of experiment: In vitro inhibition of purified enzyme, kinetic analysis by chromogenic substrates (Thrombin assay). In kind it is biochemical. The following applies: substrate SucAAPR pNA 100 uM, 37° C., pH 7.5, 405 nm, thrombin 1.1 nM. As to the method: In Vitro Inhibition of Purified Enzyme
Reagents: All buffer salts were obtained from Sigma Chemical Company (St. Louis, Mo.), and were of the highest purity available.
Human α-thrombin, was obtained from Enzyme Research Laboratories (South Bend, Ind.).
Kinetic Analysis by Chromogenic Substrates
Compounds were assessed for their inhibitory activity toward Thrombin by kinetic analysis using para-nitroaniline chromogenic substrates monitored at 405 nm. The assay buffer employed was 50 mM HEPES, pH 7.5, 200 mM NaCl, and fresh 0.05% n-octyl β-d-glucopyranoside. DMSO was present at a final concentration of 4%, derived from the substrate and inhibitory compound stock solutions. […] Reactions were initiated by addition of 10 μL protease, and increase in absorbance due to proteolytic cleavage of substrate was kinetically monitored at 37° C., 405 nm with a Molecular Devices Spectramax 340 plate reader. Initial velocities were determined by analysis of the initial linear portion of the reactions. Plots of vo/vi vs. inhibitor concentration, where vo=velocity without inhibitor, and vi=inhibited velocity, were fit to a linear regression line, and IC50 was determined from the reciprocal of the slope. Ki was calculated from IC50 using the Ki factor specific for the assay as: Ki=IC50×Ki factor, or Ki=IC50×(1/(1+[S]/Km)), where S is the substrate concentration in the assay, and Km is the Michaelis constant for the substrate (Cheng Y and Prusoff W H (1973) Biochem Pharmacol 22: 3099-3108).
The Thrombin assay incorporated substrate SucAAPR pNA (Bachem L-1720, [S]=100 uM final, Km=320 μM, Ki factor=0.76). Substrate in DMSO (10.7 mM) was diluted in assay buffer 100-fold for 100 μM final. Human α-thrombin (Enzyme Research Laboratories HT1002a) was diluted 1500-fold in assay buffer for a final assay concentration of 1.1 nM.
Take `N#Cc1ccc(NCC(F)(F)c2ccccc2)[n+]([O-])c1CC(=O)NCCONC(=N)N` [Cpd 1, 3-cyano-6-(2,2-difluoro-2-phenyl-ethylamino)-2-{2-[(aminoiminomethyl)aminooxy]ethyl}aminocarbonylmethyl-pyridine 1-oxide]: the IC50 is around 0.13 nM.
Under `N=C(N)NOCCNC(=O)Cc1c(Cl)ccc(NCC(F)(F)c2ccccc2)[n+]1[O-]` [Cpd 2, 3-chloro-6-(2,2-difluoro-2-phenyl-ethylamino)-2-{2-[(aminoiminomethyl)aminooxy]ethyl}aminocarbonylmethyl-pyridine 1-oxide] stands around 0.54 nM; under `N#Cc1ccc(NCC(F)(F)c2ccccn2)[n+]([O-])c1CC(=O)NCc1ccc2onc(N)c2c1` [Cpd 3, 3-cyano-6-(2,2-difluoro-2-pyridin-2-yl-ethylamino)-2-(3-Amino-benzo[d]isoxazol-5-ylmethyl)aminocarbonylmethyl-pyridine 1-oxide], around 280 nM.
Under `N#Cc1ccc(NCC(F)(F)c2ccccn2)[n+]([O-])c1CC(=O)NCc1ccc2c(N)noc2c1` [Cpd 4, 3-cyano-6-(2,2-difluoro-2-pyridin-2-yl-ethylamino)-2-(3-amino-benzo[d]isoxazol-6-ylmethyl)aminocarbonylmethyl-pyridine 1-oxide] stands around 6.1 nM; under `N#Cc1ccc(NCC(F)(F)c2ccccn2)[n+]([O-])c1CC(=O)NCc1ccc2ccnc(N)c2c1` [Cpd 5, 3-cyano-6-(2,2-difluoro-2-pyridin-2-yl-ethylamino)-2-(1-Amino-isoquinolin-7-ylmethyl)aminocarbonylmethyl-pyridine 1-oxide], around 42 nM.
For `N#Cc1ccc(NCC(F)(F)c2ccccn2)[n+]([O-])c1CC(=O)NCc1cnccc1-n1cncn1` [Cpd 6, 3-cyano-6-(2,2-difluoro-2-pyridin-2-yl-ethylamino)-2-(4-[1,2,4]triazol-1-yl-pyridin-3-ylmethyl)aminocarbonylmethyl-pyridine 1-oxide] the value was around 3.3 nM.
The compound `N#Cc1ccc(NCC(F)(F)c2ccccn2)[n+]([O-])c1CC(=O)NCc1c(F)cccc1-n1cncn1` [Cpd 7, 3-cyano-6-(2,2-difluoro-2-pyridin-2-yl-ethylamino)-2-(2-[1,2,4]triazol-1-yl-6-fluoro-phenylmethyl)aminocarbonylmethyl-pyridine 1-oxide] registered an IC50 of around 0.44 nM.
`N#Cc1ccc(NCC(F)(F)c2ccc(F)cc2)[n+]([O-])c1CC(=O)NCc1cnccc1-n1cncn1` [Cpd 8, 3-cyano-6-(2,2-difluoro-2-(4-fluoro-phenyl)-ethylamino)-2-(4-[1,2,4]triazol-1-yl-pyridin-3-ylmethyl)aminocarbonylmethyl-pyridine 1-oxide] came in with an IC50 of around 3.4 nM.
`N#Cc1ccc(NCC(F)(F)c2ncccn2)[n+]([O-])c1CC(=O)NCc1cnccc1-n1cncn1` [Cpd 9, 3-cyano-6-(2,2-difluoro-2-pyrimidin-2-yl-ethylamino)-2-(4-[1,2,4]triazol-1-yl-pyridin-3-ylmethyl)aminocarbonylmethyl-pyridine 1-oxide]: the IC50 was around 200 nM.
Under `N#Cc1ccc(NCC(F)(F)c2ccccn2)[n+]([O-])c1CC(=O)NCc1cccnc1-n1cncn1` [Cpd 10, 3-cyano-6-(2,2-difluoro-2-pyridin-2-yl-ethylamino)-2-(2-[1,2,4]triazol-1-yl-pyridin-3-ylmethyl)aminocarbonylmethyl-pyridine 1-oxide] stands around 170 nM; under `N=C(N)NOCCNC(=O)Cc1nc(NCC(F)(F)c2ccccc2)ccc1Cl` [Cpd 11, N-{2-[(aminoiminomethyl)aminooxy]ethyl}-2-[3-chloro-6-(2,2-difluoro-2-phenyl-ethylamino)-pyridin-2-yl]-acetamide], around 370 nM.
Consider `N#Cc1ccc(NCC(F)(F)c2ccccn2)[n+]([O-])c1CC(=O)NCc1cncc(Cl)c1` [Cpd 12, 3-cyano-6-(2,2-difluoro-2-pyridin-2-yl-ethylamino)-2-(5-chloro-pyridin-3-ylmethyl)aminocarbonylmethyl-pyridine 1-oxide], for which the IC50 was around 66 nM.
